Experimental findings from PubChem BioAssay AID248 (DTP/NCI, 2004) are described below.

The experiment deals with L1210 leukemia ip in BDF1 mice, survival T/C. The experiment in a line: NCI In Vivo Anticancer Drug Screen. Data for tumor model L1210 Leukemia (intraperitoneal) in B6D2F1 (BDF1) mice. The following applies: endpoint: mean survival time, higher = longer survival. Put shortly:
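Value reflects the ratio of survival in compound-treated mice to survival in vehicle-treated controls, with both groups carrying the same transplanted tumor.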

Where [1] appears, read: dose: 100.0 mg/kg/injection, schedule: Q04DX002 (ip), vehicle: Klucel (hydroxypropylcellulose) (HPC).
[2] abbreviates: dose: 200.0 mg/kg/injection, schedule: Q04DX002 (ip), vehicle: Klucel (hydroxypropylcellulose) (HPC).
The mark [3] stands for this setting: dose: 400.0 mg/kg/injection, schedule: Q04DX002 (ip), vehicle: Klucel (hydroxypropylcellulose) (HPC).
Where [4] appears, read: dose: 25.0 mg/kg/injection, schedule: Q04DX002 (ip), vehicle: saline with Tween-80.
Setting [5] is: dose: 50.0 mg/kg/injection, schedule: Q04DX002 (ip), vehicle: saline with Tween-80.
Setting [6] is: dose: 5.0 mg/kg/injection, schedule: Q01DX001 (ip), vehicle: saline.
Setting [7] is: dose: 10.0 mg/kg/injection, schedule: Q01DX001 (ip), vehicle: saline.
[8] abbreviates: dose: 20.0 mg/kg/injection, schedule: Q01DX001 (ip), vehicle: saline.
The mark [9] stands for this setting: dose: 40.0 mg/kg/injection, schedule: Q01DX001 (ip), vehicle: saline.
The mark [10] stands for this setting: dose: 80.0 mg/kg/injection, schedule: Q01DX001 (ip), vehicle: saline.
Setting [11] is: dose: 100.0 mg/kg/injection, schedule: Q01DX001 (ip), vehicle: saline.
Where [12] appears, read: dose: 6.25 mg/kg/injection, schedule: Q01DX009 (ip), vehicle: saline with Tween-80.
The mark [13] stands for this setting: dose: 12.5 mg/kg/injection, schedule: Q01DX009 (ip), vehicle: saline with Tween-80.
Where [14] appears, read: dose: 12.5 mg/kg/injection, schedule: Q04DX003 (ip), vehicle: saline.
Setting [15] is: dose: 25.0 mg/kg/injection, schedule: Q04DX003 (ip), vehicle: saline.
[16] abbreviates: dose: 50.0 mg/kg/injection, schedule: Q04DX003 (ip), vehicle: saline.

Values joined by “and” are separate entries in the source; they are usually repeats but may differ in a detail not shown here. Identical values can stand only once. Toxic doses and inconclusive results are not listed.

For the compound `O=S(c1ccccc1)c1ccccc1`, the T/C was 98 % of control (dose: 75.0 mg/kg/injection, schedule: Q01DX009 (ip), vehicle: Klucel (hydroxypropylcellulose) (HPC)); 102 % of control under setting [1]; 102 % of control (dose: 150.0 mg/kg/injection, schedule: Q01DX009 (ip), vehicle: Klucel (hydroxypropylcellulose) (HPC)); 98 % of control under setting [2]; 95 % of control (dose: 300.0 mg/kg/injection, schedule: Q01DX009 (ip), vehicle: Klucel (hydroxypropylcellulose) (HPC)); 112 % of control under setting [3].
Consider `CC(=O)COc1ccc(Cl)cc1Cl`, for which the T/C is 98 % of control (dose: 100.0 mg/kg/injection, schedule: Q01DX009 (ip), vehicle: saline with Tween-80); 97 % of control (dose: 200.0 mg/kg/injection, schedule: Q01DX009 (ip), vehicle: saline with Tween-80); 92 % of control (dose: 400.0 mg/kg/injection, schedule: Q01DX009 (ip), vehicle: saline with Tween-80).
As for `CCC[CH2][Sn]([Cl])([Cl])[CH2]CCC`, the T/C is 100 % of control (dose: 2.5 mg/kg/injection, schedule: Q01DX009 (ip), vehicle: saline with Tween-80); 95 % of control (dose: 5.0 mg/kg/injection, schedule: Q01DX009 (ip), vehicle: saline with Tween-80); 104 % of control (dose: 5.0 mg/kg/injection, schedule: Q04DX003 (ip), vehicle: saline with Tween-80); 95 % of control (dose: 10.0 mg/kg/injection, schedule: Q01DX009 (ip), vehicle: saline with Tween-80); 101 % of control (dose: 10.0 mg/kg/injection, schedule: Q04DX003 (ip), vehicle: saline with Tween-80); 119 % of control (dose: 20.0 mg/kg/injection, schedule: Q04DX003 (ip), vehicle: saline with Tween-80).
`O=[N+]([O-])c1c(Cl)c(Cl)cc(Cl)c1Cl`: the T/C by setting is: (dose: 100.0 mg/kg/injection, schedule: Q01DX009 (ip), vehicle: Klucel (hydroxypropylcellulose) (HPC)) 102 % of control and 92 % of control; (dose: 100.0 mg/kg/injection, schedule: Q04DX003 (ip), vehicle: Klucel (hydroxypropylcellulose) (HPC)) 93 % of control and 97 % of control; (dose: 200.0 mg/kg/injection, schedule: Q01DX009 (ip), vehicle: Klucel (hydroxypropylcellulose) (HPC)) 106 % of control and 91 % of control; (dose: 200.0 mg/kg/injection, schedule: Q04DX003 (ip), vehicle: Klucel (hydroxypropylcellulose) (HPC)) 101 % of control; (dose: 400.0 mg/kg/injection, schedule: Q01DX009 (ip), vehicle: Klucel (hydroxypropylcellulose) (HPC)) 95 % of control and 92 % of control; (dose: 400.0 mg/kg/injection, schedule: Q04DX003 (ip), vehicle: Klucel (hydroxypropylcellulose) (HPC)) 95 % of control and 100 % of control.
Consider `CC1=C2C(=CO[C@H](C)[C@H]2C)C(=O)C(C(=O)O)=C1O`, for which the T/C was 88 % of control (dose: 12.5 mg/kg/injection, schedule: Q04DX002 (ip), vehicle: saline with Tween-80); 103 % of control under setting [4]; 102 % of control and 88 % of control under setting [5].
Regarding `CCCC(CCC)NCC(C)O` (configuration not stated), the T/C (dose: 75.0 mg/kg/injection, schedule: Q01DX001 (ip), vehicle: acid diluted with saline) is 104 % of control.
For the compound `CCc1ccc2c(OC(C)=O)c3ccccc3c(OC(C)=O)c2c1`, the T/C by setting is: (dose: 100.0 mg/kg/injection, schedule: Q01DX001 (ip), vehicle: saline with Tween-80) 95 % of control; (dose: 200.0 mg/kg/injection, schedule: Q01DX001 (ip), vehicle: saline with Tween-80) 95 % of control; (dose: 400.0 mg/kg/injection, schedule: Q01DX001 (ip), vehicle: saline with Tween-80) 93 % of control.
In the case of `CCCCC/C(=N\OC(=O)NC)C(F)(F)F`, the T/C reads like this: under setting [6], 96 % of control; under setting [7], 104 % of control; under setting [8], 100 % of control; under setting [9], 98 % of control; under setting [10], 94 % of control.
On to `On1ccc(N2CCOCC2)cc1=NC1CCCCC1`, for which the T/C reads like this: under setting [6], 95 % of control; under setting [7], 97 % of control; under setting [8], 90 % of control; under setting [9], 98 % of control; under setting [10], 101 % of control; under setting [11], 103 % of control.
Take `CCN(CC)c1ccc(N(C(C)=O)C(C)=O)cc1`: the T/C is, setting by setting: under setting [12], 98 % of control; under setting [13], 96 % of control; (dose: 25.0 mg/kg/injection, schedule: Q01DX009 (ip), vehicle: saline with Tween-80) 96 % of control.
For `O=C(CCCN1CCC2(CC1)C(=O)NCN2c1ccccc1)c1ccccc1`, the T/C was 96 % of control (dose: 10.0 mg/kg/injection, schedule: Q04DX003 (ip), vehicle: Klucel (hydroxypropylcellulose) (HPC)); 98 % of control (dose: 20.0 mg/kg/injection, schedule: Q04DX003 (ip), vehicle: Klucel (hydroxypropylcellulose) (HPC)); 101 % of control (dose: 40.0 mg/kg/injection, schedule: Q04DX003 (ip), vehicle: Klucel (hydroxypropylcellulose) (HPC)).
For the compound `NCC1OCOC2C(C(=O)O)OCOC12` (configuration not stated), the T/C is, setting by setting: (dose: 50.0 mg/kg/injection, schedule: Q04DX002 (ip), vehicle: saline) 101 % of control; (dose: 100.0 mg/kg/injection, schedule: Q04DX002 (ip), vehicle: saline) 96 % of control; (dose: 200.0 mg/kg/injection, schedule: Q04DX002 (ip), vehicle: saline) 101 % of control; (dose: 400.0 mg/kg/injection, schedule: Q04DX002 (ip), vehicle: saline) 96 % of control.
As to `CC(C)C([NH-])=O.CC(C)C([NH-])=O.[Cl][Pt+2][Cl]`, the T/C under setting [14] was 116 % of control; the T/C (dose: 25.0 mg/kg/injection, schedule: Q01DX009 (ip), vehicle: saline) is 102 % of control; the T/C under setting [15] was 118 % of control; the T/C (dose: 50.0 mg/kg/injection, schedule: Q01DX009 (ip), vehicle: saline) was 89 % of control; the T/C under setting [16] was 112 % of control; the T/C (dose: 100.0 mg/kg/injection, schedule: Q04DX003 (ip), vehicle: saline) is 108 % of control and 118 % of control.
In the case of `Nc1cc2c3c(cccc3c1Br)C(=O)NC2=O`, the T/C is, setting by setting: under setting [1], 121 % of control; under setting [2], 96 % of control; under setting [3], 107 % of control.
As to `S=C=NCCCCCCCCCCCCN=C=S`, the T/C under setting [12] was 101 % of control; the T/C under setting [13] is 93 % of control; the T/C under setting [4] was 114 % of control; the T/C under setting [5] was 111 % of control; the T/C (dose: 100.0 mg/kg/injection, schedule: Q04DX002 (ip), vehicle: saline with Tween-80) was 101 % of control.
`CCC(C)C(CCCCN1CCOCC1)(CNC(=O)CN(CC)CC)c1cccc2ccccc12` (configuration not stated): the T/C is 104 % of control under setting [14], 98 % of control under setting [15] and 108 % of control under setting [16].
Consider `Cc1cc(C)[n+]([O-])c(C)c1[N+](=O)[O-]`, for which the T/C under setting [11] was 101 % of control and the T/C (dose: 200.0 mg/kg/injection, schedule: Q01DX001 (ip), vehicle: saline) was 101 % of control.
In the case of `O=C(O)CSc1cc(Cl)c(Cl)cc1Cl`, the T/C (dose: 87.5 mg/kg/injection, schedule: Q04DX003 (ip), vehicle: other) is 100 % of control and the T/C (dose: 175.0 mg/kg/injection, schedule: Q04DX003 (ip), vehicle: other) was 110 % of control.
Turning to `C=CCn1cnc2c(=S)nc[nH]c21`, the T/C is, setting by setting: (dose: 12.0 mg/kg/injection, schedule: Q01DX015 (ip), vehicle: other) 124 % of control; (dose: 37.5 mg/kg/injection, schedule: Q01DX Z (ip), vehicle: alkali diluted with saline) 166 % of control; (dose: 63.0 mg/kg/injection, schedule: Q01DX015 (ip), vehicle: other) 92 % of control; (dose: 75.0 mg/kg/injection, schedule: Q01DX Z (ip), vehicle: alkali diluted with saline) 114 % of control; (dose: 100.0 mg/kg/injection, schedule: Q01DX001 (ip), vehicle: other) 116 % of control; (dose: 108.0 mg/kg/injection, schedule: Q01DX015 (ip), vehicle: other) 87 % of control. Also, under “dose: 150.0 mg/kg/injection, schedule: Q01DX Z (ip), vehicle: alkali diluted with saline”, the T/C is 92 % of control.
